From patent US6541480B2, “1-aryl-1,8-naphthylidin-4-one derivative as type IV phosphodiesterase inhibitor” (Suntory Limited, priority 1997, dated 2003)

Key:
[1] = system: TNF-α production by LPS stimulated mouse peritoneal macrophages; experiment: TNF-α production inhibitory activity by LPS stimulated macrophages (ELISA); type: cell-based; conditions: LPS 10 μg/ml, 8 hours
Procedure: (1) Method of Measurement of TNF-α Production Inhibitory Activity by LPS Stimulated Macrophages
The following assay was used to evaluate the ability of the compound of the present invention to suppress TNF-α production by LPS stimulated macrophages according to Immuno pharmacol. 29, 121-127 (1995).
1) 6 to 10 week old female BALB/c mice were used, 2 ml portions of thioglycolate were intraperitoneally administered, and the abdominal cavities were washed by 10 ml of PBS after 4 days, whereby 1 to 2×10^7 peritoneal cells were obtained per mouse. These were suspended in a hemocyte solution (0.75% ammonium chloride, 17 mM tris-hydrochlorate buffer, pH7.2), centrifuged, then resuspended in an RPMI1640 medium including 10% fetal calf serum and seeded in a 96-well cell culture plate at a density of 1×10^5 cells/50 μl/well. Since these cells adhered strongly to the tissue culture plate and were positive in nonspecific esterase staining, they were used for the test as mouse peritoneal macrophages. Mouse peritoneal macrophages were precultured overnight at 37° C. in 5% CO2 for the experiment.
2) E. Coli (serum type 055:B5) derived LPS was dissolved in PBS in a concentration of 1 mg/ml, then sterilized by filtration. The test compound was dissolved in DMSO to make a 1000-fold concentration solution of the final concentration of use. 10 μl of the above LPS stock solution (final concentration 10 μg/ml) and 1 μl of the tested substance stock solution were added and mixed in 0.5 ml of RPMI1640 medium containing 10% fetal calf serum. This was added to the above cells at 50 μl/well and cultured for 8 hours. The cultured supernatant was recovered from each well and the TNF-α concentration was measured by the ELISA method (Cytoscreen® Immunoassay Kit Mouse TNF-α, BioSource International).

[2] = system: type IV phosphodiesterase; experiment: Type IV phosphodiesterase inhibiting activity (3H-cAMP hydrolysis, PDE IV fraction from U937 cells); type: biochemical; conditions: PDE IV fraction from human U937 cells, 30° C., 30 minutes
Procedure: (1) Method of Measurement of Type IV Phosphodiesterase Inhibiting Activity
The following assay was used to evaluate the ability of the compound of the present invention to suppress type IV phosphodiesterase, according to Biochemical.
1) Type IV phosphodiesterase activity fractions were prepared as follows. Human histiocytic lymphoma cell line U937 was cultured in an RPMI1640 medium containing 10% fetal calf serum to obtain 10^9 cells of U937. The cells were recovered by centrifugation and suspended in 40 ml of buffer A (20 mM bis-tris, 5 mM 2-mercaptoethanol, 2 mM benzamidine, 2 mM EDTA, 0.1 mM 4-(2-aminoethyl)benzensulfonyl hydrochloride, 50 mM sodium acetate, pH=6.5). The cells were broken by a sonication and centrifuged (4° C., 10,000G, 10 minutes) to obtain a supernatent. This was filtered by a 0.45 μm filter to obtain the soluble fraction.
The soluble fraction obtained was applied into a 1×10 cm DEAE Sepharose column equalibrated with the buffer A. 120 ml of the buffer A containing a linear gradient solution of 0.05 to 1 M sodium acetate was used to separate the phosphodiesterase and recover 24 5-ml fractions. Each of the fractions was measured for the cAMP phosphodiesterase activity.
2) The test compound was reacted at a desired concentration in a reaction mixture containing 20 mM tris-HCl (pH 7.5), 1 mM MgCl2, 100 μM EDTA, 330 μg/ml calf serum albumin, 10 μg/ml 5′-nucleotidase, 0.4 μCi ^3H-cAMP ([…] cAMP) and the type IV phosphodiesterase stored solution at 30° C. for 30 minutes. QAE-Sephadex suspended in 10 mM of hepes-Na (pH-7.0) was added to the reaction mixture which was then allowed to stand for 5 minutes, then the supernatant was obtained, QAE-Sephadex was further added, to the supernatant, and was allowed to stand for 5 minutes, then the supernatant was obtained and measured for radioactivity.

[3] = 28-day repeated administration toxicity in mice; type: in vivo; conditions: 10 mg/kg per day administered for 28 days to mice

| SMILES | IC50 ([1]; Peritoneal macrophage) [nM] | IC50 [2] [nM] | death [3] | IC50 [1] [nM] |
| --- | --- | --- | --- | --- |
| O=C(Nc1c(Cl)cncc1Cl)c1cn(-c2ccncc2)c2ncccc2c1=O [Example 141, N-(3,5-Dichloropyridin-4-yl)-1-(4-pyridyl)-1,4-dihydro[1,8]naphthylidin-4-one-3-carboxamide] | 1 | 0.5 | no death |  |
| O=C(Nc1c(Cl)cncc1Cl)c1cn(-c2ccc(F)cc2)c2ncccc2c1=O [Example 106, N-(3,5-Dichloropyridin-4-yl)-1-(4-fluorophenyl)-1,4-dihydro[1,8]naphthylidin-4-one-3-carboxamide] |  | 0.4 | no death | 10 |
| O=C(Nc1ccncc1)c1cn(-c2ccncc2)c2ncccc2c1=O [Example 139, 1,N-bis-(4-Pyridyl)-1,4-dihydro[1,8]naphthylidin-4-one-3-carboxamide] | 100 | 70 | no death |  |
| O=C(Nc1c(Cl)cccc1Cl)c1cn(-c2ccc(F)cc2)c2ncccc2c1=O [Example 99, N-(2,6-Dichlorophenyl)-1-(4-fluorophenyl)-1,4-dihydro[1,8]naphthylidin-4-one-3-carboxamide] | 25 | 3.4 | no death |  |
| O=C(Nc1ccncc1)c1cn(-c2ccc(F)cc2)c2ncccc2c1=O [Example 103, 1-(4-Fluorophenyl)-N-(4-pyridyl)-1,4-dihydro[1,8]naphthylidin-4-one-3-carboxamide] | 100 | 59 | no death |  |
| O=C(Nc1cccc(O)c1)c1cn(-c2ccc(F)cc2)c2ncccc2c1=O [Example 74, 1-(4-Fluorophenyl)-N-(3-hydroxythenyl)-1,4-dihydro[1,8]naphthylidin-4-one-3-carboxamide] | 400 | 420 |  |  |
| O=C(Nc1ccc(F)cc1)c1cn(-c2ccc(F)cc2)c2ncccc2c1=O [Example 98, 1,N-bis-(4-fluorophenyl)-1,4-dihydro[1,8]naphthylidin-4-one-3-carboxamide] | 1000 | 160 |  |  |
| O=C(Nc1cccc2ncccc12)c1cn(-c2ccc(F)cc2)c2ncccc2c1=O [Example 113, 1-(4-Fluorophenyl)-N-(5-quinolyl)-1,4-dihydro [1,8]naphthylidin-4-one-3-carboxamide] | 60 | 44 |  |  |
| O=C(Nc1c(Cl)cncc1Cl)c1cn(-c2cccnc2)c2ncccc2c1=O [Example 136, N-(3,5-Dichloropyridin-4-yl)-1-(3-pyridyl)-1,4-dihydro[1,8]naphthylidin-4-one-3-carboxamide] |  | 0.8 |  | 3 |
| Cc1cnccc1NC(=O)c1cn(-c2ccc(F)cc2)c2ncccc2c1=O [Example 104, 1-(4-Fluorophenyl)-N-(3-methylpyridin-4-yl)-1,4-dihydro[1,8]naphthylidin-4-one-3-carboxamide] | 0.3 | 19 |  |  |
| O=C(NCc1ccncc1)c1cn(-c2ccc(F)cc2)c2ncccc2c1=O [Example 64, 1-(4-Fluorophenyl)-N-(4-pyridyl)methyl-1,4-dihydro[1,8]naphthylidin-4-one-3-carbdxamide] | 100 | 120 |  |  |
| O=C(Nc1ccccc1[N+](=O)[O-])c1cn(-c2ccc(F)cc2)c2ncccc2c1=O [Example 93, 1-(4-fluorophenyl)-N-(2-nitrophenyl)-1,4-dihydro[1,8]naohthylidin-4-one-3-carboxamide] | 30 | 16 |  |  |
| O=C(Nc1ccncc1)c1cn(-c2ccccn2)c2ncccc2c1=O [Example 132, N-(4-Pyridyl)-1-(2-pyridyl)-1,4-dihydro[1,8]naphthylidin-4-one-3-carboxamide] | 1000 | 760 |  |  |
| Nc1ccccc1NC(=O)c1cn(-c2ccc(F)cc2)c2ncccc2c1=O [Example 90, N-(2-aminophenyl)-1-(4-fluorophenyl)-1,4-dihydro[1,8]naphthylidin-4-one-3-carboxamide] | 500 | 96 |  |  |
| O=C(Nc1cccnc1)c1cn(-c2ccc(F)cc2)c2ncccc2c1=O [Example 102, 1-(4-Fluorophenyl)-N-(3-pyridyl)-1,4-dihydro[1,8]naphthylidin-4-one-3-carboxamide] | 100 | 35 | no death |  |
| O=C(NCC1CC1)c1cn(-c2ccc(F)cc2)c2ncccc2c1=O [Example 56, N-cyclopropylmethyl-1-(4-fluorophenyl)-1,4-dihydro[1,8]naohthylidin-4-one-3-carboxamide] |  | 26 |  | 4 |
| O=C(NCCc1ccccc1)c1cn(-c2ccc(F)cc2)c2ncccc2c1=O [Example 65, 1-(4-Fluorophenyl)-N-(2-phenylethyl)-1,4-dihydro[1,8]naphthylidin-4-one-3-carboxamide] | 600 | 270 |  |  |
| O=C(Nc1cnccn1)c1cn(-c2ccc(F)cc2)c2ncccc2c1=O [Example 109, 1-(4-Fluorophenyl)-N-pyrazinyl-1,4-dihydro[1,8]naphthylidin-4-one-3-carboxamide] | 400 | 400 |  |  |
| C=CCNC(=O)c1cn(-c2ccc(F)cc2)c2ncccc2c1=O [Example 54, N-allyl-1-(4-fluorophenyl)-1,4-dihydro[1,8]naphthylidin-4-one-3-carboxamide] | 100 | 35 |  |  |
| O=C(Nc1ccccc1)c1cn(-c2ccc(F)cc2)c2ncccc2c1=O [Example 67, N-phenyl-1-(4-fluorophenyl)-1,4-dihydro[1,8]naphthylidin-4-one-3-carboxamide] | 700 | 60 |  |  |
| Nc1cccc(NC(=O)c2cn(-c3ccc(F)cc3)c3ncccc3c2=O)c1 [Example 91, N-(3-aminophenyl)-1-(4-fluorophenyl)-1,4-dihydro[1,8]naphthylidin-4-one-3-carboxamide] | 100 | 52 |  |  |
| COc1cccc(NC(=O)c2cn(-c3ccc(F)cc3)c3ncccc3c2=O)c1 [Example 77, 1-(4-Fluorophenyl)-N-(3-methoxyphenyl)-1,4-dihydro[1,8]naphthylidin-4-one-3-carboxamide] | 100 | 180 |  |  |
